Reference: ChEMBL document CHEMBL3351904, “Synthesis of new bioisosteric hemiasterlin analogues with extremely high cytotoxicity” (Bioorg Med Chem Lett, 2014)

Experiments:
HepG2 = experiment: Cytotoxicity against human HepG2 cells assessed as reduction in cell growth after 3 days by MTT assay; type: functional, cell-based; details: HepG2, 72 h
KB = experiment: Cytotoxicity against human KB cells assessed as reduction in cell growth after 3 days by MTT assay; type: functional, cell-based; details: 72 h

Structure (SMILES)	IC50 (HepG2) [nM]	IC50 (KB) [nM]
CCOC(=O)/C(C)=C/[C@H](C(C)C)N(C)C(=O)[C@@H](NC(=O)[C@@H](NC)C(C)(C)c1ccc(Br)cc1)C(C)(C)C	6	12
CCOC(=O)/C(C)=C/[C@H](C(C)C)N(C)C(=O)[C@@H](NC(=O)[C@H](NC)C(C)(C)c1ccc(Br)cc1)C(C)(C)C	10	172
CCOC(=O)/C(C)=C/[C@H](C(C)C)N(C)C(=O)[C@@H](NC(=O)[C@@H](NC)C(C)(C)c1coc2ccccc12)C(C)(C)C	11	13
CCOC(=O)/C(C)=C/[C@H](C(C)C)N(C)C(=O)[C@@H](NC(=O)[C@H](NC)C(C)(C)c1coc2ccccc12)C(C)(C)C	730	760
CCOC(=O)/C(C)=C/[C@H](C(C)C)N(C)C(=O)[C@@H](NC(=O)[C@@H](NC)C(C)(C)c1ccc2ccccc2c1)C(C)(C)C	13	13
CCOC(=O)/C(C)=C/[C@H](C(C)C)N(C)C(=O)[C@@H](NC(=O)[C@H](NC)C(C)(C)c1ccc2ccccc2c1)C(C)(C)C	144	181
CN[C@H](C(=O)N[C@H](C(=O)N(C)[C@H](/C=C(\C)C(=O)O)C(C)C)C(C)(C)C)C(C)(C)c1ccc(Br)cc1	1.8	1.7
CN[C@@H](C(=O)N[C@H](C(=O)N(C)[C@H](/C=C(\C)C(=O)O)C(C)C)C(C)(C)C)C(C)(C)c1ccc(Br)cc1	13	11
CN[C@H](C(=O)N[C@H](C(=O)N(C)[C@H](/C=C(\C)C(=O)O)C(C)C)C(C)(C)C)C(C)(C)c1coc2ccccc12	1.9	1.7
CN[C@@H](C(=O)N[C@H](C(=O)N(C)[C@H](/C=C(\C)C(=O)O)C(C)C)C(C)(C)C)C(C)(C)c1coc2ccccc12	37	43
CN[C@H](C(=O)N[C@H](C(=O)N(C)[C@H](/C=C(\C)C(=O)O)C(C)C)C(C)(C)C)C(C)(C)c1ccc2ccccc2c1	1.9	1.9
CN[C@@H](C(=O)N[C@H](C(=O)N(C)[C@H](/C=C(\C)C(=O)O)C(C)C)C(C)(C)C)C(C)(C)c1ccc2ccccc2c1	34	14
